Measurements: patent publication US4393225A, “AI-77 Compounds and pharmaceutically acceptable salts thereof” (Asahi Kasei Kogyo Kabushiki Kaisha, priority 1979, dated 1983)
Like-named read-outs stand apart in the source and are kept apart here.

System: ulcer
Experiment: Anti-ulcer test (restraint and water immersion ulcer in rats, i.p.)
Format: in vivo, Male Wistar rats
Conditions: Rattus norvegicus, ip, read-out: % Inhibition of Ulcer
Method in brief: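 Compound given intraperitoneally in saline to 24 h-fasted male Wistar rats about 150 g, followed after one hour by 6 h restraint with water immersion at 21 °C. Gastric lesions graded 0, 0.5, 1, 2 or 3 on microscopic inspection and converted to percent ulcer inhibition.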

Row | SMILES | inhibition in vivo at 50 mg/kg (50 mg/kg i.p.) [%] | inhibition in vivo at 50 mg/kg [%]
1 | CCC(=O)OC(C(=O)NC(CC(C)C)C1Cc2cccc(OCC3CCCCC3)c2C(=O)O1)C1OC(=O)CC1NC(C)=O (centres unmarked) [IIIa-6-10] | 33 | 
2 | CCCC(=O)NC1CC(=O)OC1C(OC(=O)CCC)C(=O)NC(CC(C)C)C1Cc2cccc(OCc3ccco3)c2C(=O)O1 (centres unmarked) [IIIa-6-11] | 33 | 
3 | CCC(=O)OC(C(=O)NC(CC(C)C)C1Cc2cccc(OC)c2C(=O)O1)C1OC(=O)CC1NC(C)=O (centres unmarked) [IIIa-6-12] | 33 | 
4 | CCOc1cccc2c1C(=O)OC(C(CC(C)C)NC(=O)C(OC(=O)CC)C1OC(=O)CC1NC(=O)C(Cl)(Cl)Cl)C2 (centres unmarked) [IIIa-6-13] | 33 | 
5 | CCOc1cccc2c1C(=O)OC(C(CC(C)C)NC(=O)C(OC)C1OC(=O)CC1NC(C)=O)C2 (centres unmarked) [IIIa-7-1] | 33 | 
6 | CCOc1cccc2c1C(=O)OC(C(CC(C)C)NC(=O)C(OCC)C1OC(=O)CC1NC(C)=O)C2 (centres unmarked) [IIIa-7-2] | 33 | 
7 | CCOc1cccc2c1C(=O)OC(C(CC(C)C)NC(=O)C(OCC)C1OC(=O)CC1NC(=O)CC(C)C)C2 (centres unmarked) [IIIa-7-3] | 33 | 
8 | CCCCCCCCCCCCCCCCCC(=O)NC1CC(=O)OC1C(OCC)C(=O)NC(CC(C)C)C1Cc2cccc(OCCCCCCC)c2C(=O)O1 (centres unmarked) [IIIa-7-4] | 22 | 
9 | CCCCCCCCC=CCCCCCCCC(=O)NC1CC(=O)OC1C(OCC)C(=O)NC(CC(C)C)C1Cc2cccc(OCC)c2C(=O)O1 (centres unmarked) [IIIa-7-5] | 22 | 
10 | CCOc1cccc2c1C(=O)OC(C(CC(C)C)NC(=O)C(OC)C1OC(=O)CC1NC(=O)C1CCCO1)C2 (centres unmarked) [IIIa-7-6] | 22 | 
11 | CCOc1cccc2c1C(=O)OC(C(CC(C)C)NC(=O)C(OC)C1OC(=O)CC1NC(=O)CC(C)OC)C2 (centres unmarked) [IIIa-7-7] | 33 | 
12 | CCCCOC(C(=O)NC(CC(C)C)C1Cc2cccc(OCC)c2C(=O)O1)C1OC(=O)CC1NC(=O)c1ccc(C)cc1 (centres unmarked) [IIIa-7-8] | 22 | 
13 | CCOc1cccc2c1C(=O)OC(C(CC(C)C)NC(=O)C(OC)C1OC(=O)CC1NC(=O)c1ccc(OCCC(C)C)cc1)C2 (centres unmarked) [IIIa-7-9] | 22 | 
14 | CCCCOC(C(=O)NC(CC(C)C)C1Cc2cccc(OC)c2C(=O)O1)C1OC(=O)CC1NC(=O)CCC (centres unmarked) [IIIa-7-10] | 33 | 
15 | CCCC(=O)NC1CC(=O)OC1C(OC(C)C)C(=O)NC(CC(C)C)C1Cc2cccc(OCc3ccccc3)c2C(=O)O1 (centres unmarked) [IIIa-7-11] | 33 | 
16 | CCCC(=O)NC1CC(=O)OC1C(OC(C)C)C(=O)NC(CC(C)C)C1Cc2cccc(OCC3CCCCC3)c2C(=O)O1 (centres unmarked) [IIIa-7-12] | 33 | 
17 | CCCC(=O)NC1CC(=O)OC1C(OC)C(=O)NC(CC(C)C)C1Cc2cccc(OCc3ccc4ccccc4c3)c2C(=O)O1 (centres unmarked) [IIIa-7-13] | 33 | 
18 | CCCC(=O)NC1CC(=O)OC1C(OC)C(=O)NC(CC(C)C)C1Cc2cccc(OCC3CCCCO3)c2C(=O)O1 (centres unmarked) [IIIa-7-14] | 33 | 
19 | CCCCCC(=O)OC(C)CCOc1cccc2c1C(=O)OC(C(CC(C)C)NC(=O)C(OC)C1OC(=O)CC1NC(=O)CCC)C2 (centres unmarked) [IIIa-7-15] | 33 | 
20 | CCCCOc1cccc2c1C(=O)OC(C(CC(C)C)NC(=O)C(OC)C1OC(=O)CC1NC(C)=O)C2 (centres unmarked) [IIIa-7-16] | 33 | 
21 | CCCOC(C(=O)NC(CC(C)C)C1Cc2cccc(OCC)c2C(=O)O1)C1OC(=O)CC1NC(=O)C(Cl)(Cl)Cl (centres unmarked) [IIIa-7-17] | 33 | 
22 | CCCCOC(C(=O)NC(CC(C)C)C1Cc2cccc(O)c2C(=O)O1)C1OC(=O)CC1NC(C)=O (centres unmarked) [IIIa-8-1] | 56 | 

Row | SMILES | inhibition in vivo at 50 mg/kg (50 mg/kg i.p.) [%] | inhibition in vivo at 50 mg/kg [%]
23 | CC(C)CC(NC(=O)C(OC(=O)C(Cl)(Cl)Cl)C1OC(=O)CC1N)C1Cc2cccc(OC(=O)C(Cl)(Cl)Cl)c2C(=O)O1 (centres unmarked) [IIIa-11-4] |  | 56
24 | CCCCCCCCC=CCCCCCCCC(=O)OC(C(=O)NC(CC(C)C)C1Cc2cccc(OC(=O)CC)c2C(=O)O1)C1OC(=O)CC1N (centres unmarked) [IIIa-11-5] | 44 | 
25 | CCCC(=O)Oc1cccc2c1C(=O)OC(C(CC(C)C)NC(=O)C(OC(C)=O)C1OC(=O)CC1N)C2 (centres unmarked) [IIIa-11-6] | 56 | 
26 | CC(=O)Oc1cccc2c1C(=O)OC(C(CC(C)C)NC(=O)C(O)C1OC(=O)CC1N)C2 (centres unmarked) [IIIa-12-1] | 78 | 
27 | CC(C)CC(NC(=O)C(O)C1OC(=O)CC1N)C1Cc2cccc(OC(=O)C(C)C)c2C(=O)O1 (centres unmarked) [IIIa-12-2] | 78 | 
28 | CCCCCCCCCCCCCCCCCC(=O)Oc1cccc2c1C(=O)OC(C(CC(C)C)NC(=O)C(O)C1OC(=O)CC1N)C2 (centres unmarked) [IIIa-12-3] | 66 | 
29 | CCCCCCCCC=CCCCCCCCC(=O)Oc1cccc2c1C(=O)OC(C(CC(C)C)NC(=O)C(O)C1OC(=O)CC1N)C2 (centres unmarked) [IIIa-12-4] | 72 | 
30 | CC(C)CC(NC(=O)C(O)C1OC(=O)CC1N)C1Cc2cccc(OC(=O)C3CCCO3)c2C(=O)O1 (centres unmarked) [IIIa-12-5] | 78 | 
31 | COC(C)CC(=O)Oc1cccc2c1C(=O)OC(C(CC(C)C)NC(=O)C(O)C1OC(=O)CC1N)C2 (centres unmarked) [IIIa-12-6] | 78 | 
32 | Cc1ccc(C(=O)Oc2cccc3c2C(=O)OC(C(CC(C)C)NC(=O)C(O)C2OC(=O)CC2N)C3)cc1 (centres unmarked) [IIIa-12-7] | 78 | 
33 | CC(C)CCOc1ccc(C(=O)Oc2cccc3c2C(=O)OC(C(CC(C)C)NC(=O)C(O)C2OC(=O)CC2N)C3)cc1 (centres unmarked) [IIIa-12-8] | 72 | 
34 | CC(C)CC(NC(=O)C(O)C1OC(=O)CC1N)C1Cc2cccc(OC(=O)C(Cl)(Cl)Cl)c2C(=O)O1 (centres unmarked) [IIIa-12-9] | 66 | 
35 | COc1cccc2c1C(=O)OC(C(CC(C)C)NC(=O)C(O)C1OC(=O)CC1N)C2 (centres unmarked) [IIIa-13-1] | 100 | 
36 | CCOc1cccc2c1C(=O)OC(C(CC(C)C)NC(=O)C(O)C1OC(=O)CC1N)C2 (centres unmarked) [IIIa-13-2] | 94 | 
37 | CCCCOc1cccc2c1C(=O)OC(C(CC(C)C)NC(=O)C(O)C1OC(=O)CC1N)C2 (centres unmarked) [IIIa-13-3] | 100 | 
38 | CC(C)CCOc1cccc2c1C(=O)OC(C(CC(C)C)NC(=O)C(O)C1OC(=O)CC1N)C2 (centres unmarked) [IIIa-13-4] | 100 | 
39 | CCCCCCCCCCCCCCCCCCOc1cccc2c1C(=O)OC(C(CC(C)C)NC(=O)C(O)C1OC(=O)CC1N)C2 (centres unmarked) [IIIa-13-5] | 72 | 
40 | CC(C)CC(NC(=O)C(O)C1OC(=O)CC1N)C1Cc2cccc(OCCCl)c2C(=O)O1 (centres unmarked) [IIIa-13-6] | 94 | 
41 | CCCCCCCCC=CCCCCCCCCOc1cccc2c1C(=O)OC(C(CC(C)C)NC(=O)C(O)C1OC(=O)CC1N)C2 (centres unmarked) [IIIa-13-7] | 72 | 
42 | CC(C)CC(NC(=O)C(O)C1OC(=O)CC1N)C1Cc2cccc(OCc3ccccc3)c2C(=O)O1 (centres unmarked) [IIIa-13-9] | 89 | 
43 | CC(C)CC(NC(=O)C(O)C1OC(=O)CC1N)C1Cc2cccc(OC3CC3)c2C(=O)O1 (centres unmarked) [IIIa-13-10] | 94 | 
44 | CC(C)CC(NC(=O)C(O)C1OC(=O)CC1N)C1Cc2cccc(OCC3CCCCC3)c2C(=O)O1 (centres unmarked) [IIIa-13-11] | 78 | 

Row | SMILES | inhibition in vivo at 50 mg/kg (50 mg/kg i.p.) [%] | inhibition in vivo at 50 mg/kg [%]
45 | CC(C)CC(NC(=O)C(O)C1OC(=O)CC1N)C1Cc2cccc(OCCc3ccccc3)c2C(=O)O1 (centres unmarked) [IIIa-13-12] | 89 | 
46 | CC(C)CC(NC(=O)C(O)C1OC(=O)CC1N)C1Cc2cccc(OCc3ccco3)c2C(=O)O1 (centres unmarked) [IIIa-13-13] | 89 | 
47 | CC(C)CC(NC(=O)C(O)C1OC(=O)CC1N)C1Cc2cccc(OCC3CCCO3)c2C(=O)O1 (centres unmarked) [IIIa-13-14] | 89 | 
48 | CC(C)CC(NC(=O)C(O)C1OC(=O)CC1N)C1Cc2cccc(OCCC3CCCCO3)c2C(=O)O1 (centres unmarked) [IIIa-13-15] | 94 | 
49 | CC(=O)N1CCC(COc2cccc3c2C(=O)OC(C(CC(C)C)NC(=O)C(O)C2OC(=O)CC2N)C3)CC1 (centres unmarked) [IIIa-13-16] | 89 | 
50 | CC(C)CC(NC(=O)C(O)C1OC(=O)CC1N)C1Cc2cccc(OCc3ccc4ccccc4c3)c2C(=O)O1 (centres unmarked) [IIIa-13-17] | 72 | 
51 | CC(C)CC(NC(=O)C(O)C1OC(=O)CC1N)C1Cc2cccc(OCCc3ccc4ccccc4c3)c2C(=O)O1 (centres unmarked) [IIIa-13-18] | 72 | 
52 | CC(C)CC(NC(=O)C(O)C1OC(=O)CC1N)C1Cc2cccc(OCCCBr)c2C(=O)O1 (centres unmarked) [IIIa-13-19] |  | 100
53 | CCC(=O)COc1cccc2c1C(=O)OC(C(CC(C)C)NC(=O)C(O)C1OC(=O)CC1N)C2 (centres unmarked) [IIIa-13-20] | 100 | 
54 | Cc1ccc(COc2cccc3c2C(=O)OC(C(CC(C)C)NC(=O)C(O)C2OC(=O)CC2N)C3)cc1 (centres unmarked) [IIIa-13-21] | 89 | 
55 | COc1ccc(COc2cccc3c2C(=O)OC(C(CC(C)C)NC(=O)C(O)C2OC(=O)CC2N)C3)cc1 (centres unmarked) [IIIa-13-23] | 72 | 
56 | CCOc1cccc2c1C(=O)OC(C(CC(C)C)NC(=O)C(OC(C)=O)C1OC(=O)CC1N)C2 (centres unmarked) [IIIa-14-1] | 56 | 
57 | CCOc1cccc2c1C(=O)OC(C(CC(C)C)NC(=O)C(OC(=O)C(C)C)C1OC(=O)CC1N)C2 (centres unmarked) [IIIa-14-2] | 56 | 
58 | CCCCCCCCCCCCCCCCCC(=O)OC(C(=O)NC(CC(C)C)C1Cc2cccc(OCC)c2C(=O)O1)C1OC(=O)CC1N (centres unmarked) [IIIa-14-3] | 44 | 
59 | CCOc1cccc2c1C(=O)OC(C(CC(C)C)NC(=O)C(OC(=O)CC)C1OC(=O)CC1N)C2 (centres unmarked) [IIIa-14-9] | 56 | 
60 | CCCCOC(C(=O)NC(CC(C)C)C1Cc2cccc(OC)c2C(=O)O1)C1OC(=O)CC1N (centres unmarked) [IIIa-15-1] | 56 | 
61 | CCCCOc1cccc2c1C(=O)OC(C(CC(C)C)NC(=O)C(OCCCC)C1OC(=O)CC1N)C2 (centres unmarked) [IIIa-15-2] | 56 | 
62 | CCCCCCCCCCCCCCCCCCOc1cccc2c1C(=O)OC(C(CC(C)C)NC(=O)C(OCCCC)C1OC(=O)CC1N)C2 (centres unmarked) [IIIa-15-3] | 44 | 
63 | CCCOC(C(=O)NC(CC(C)C)C1Cc2cccc(OCC)c2C(=O)O1)C1OC(=O)CC1N (centres unmarked) [IIIa-15-8] | 56 | 
64 | COC(C(=O)NC(CC(C)C)C1Cc2cccc(O)c2C(=O)O1)C1OC(=O)CC1N (centres unmarked) [IIIa-16-1] | 72 | 
65 | CCCCCCCCCCCCCCCCCCOC(C(=O)NC(CC(C)C)C1Cc2cccc(O)c2C(=O)O1)C1OC(=O)CC1N (centres unmarked) [IIIa-16-3] | 56 | 
